Where “and” joins values, the source holds several entries; their conditions need not be identical. Equal entries are not always repeated. Where two headings read alike, the source gives them in different places. Marks after values point to notes of the source that are not given here.
How the values were obtained:
[1] = system: mice exposed to 6, 8 and 10 Gy gamma radiation
Text: Male Swiss albino mice (Mus musculus), 6-8 weeks old with 25±3 g body weight from an inbred colony (obtained from Hamadard University, Delhi, India) were used for the present study. Animals were maintained under controlled conditions of temperature and light in an animal house and were provided with standard mice feed (procured from Hindustan Lever's Ltd. Delhi, India) and water ad libitum.
Cobalt teletherapy unit (ATC-C9) at the Cancer treatment centre, Radiotherapy Department, SMS Medical College & Hospital, Jaipur, India, was used for irradiation.
(§1) Thirty minutes after the last administration, the animals were exposed to 8 Gy gamma radiation. Survival of the animals was recorded for 30 days after irradiation. The reduced glutathione (GSH) and lipid peroxidation (LPO) levels in liver and blood were estimated after 30 minutes of radiation exposure.
The protective capacity of an agent (chemical or plant extract) is expressed as dose reduction factor (DRF). It can be calculated by dividing the LD50/30 of experimental animals by LD^50/30 of control animals.
Mice of both groups (control as well as experimental) exposed to 6, 8 and 10 Gy gamma radiation were checked daily for 30 days and the percentage of mice surviving 30 days of exposure against each radiation dose was used to construct survival-dose response curves.
The results obtained are expressed as mean±SE. Student's “t” test was used to make a statistical comparison between the groups. Significance levels were set at P<0.05, P<0.01 and P<0.001. Regression analysis was done to obtain LD50/30 values and to determine the dose reduction factor (DRF).

[2] = system: reduced glutathione (GSH)
Method: as §1
The hepatic level of reduced glutathione (GSH) was determined as per the standard method. GSH content in blood was measured
Spectrophotometrically using Ellman's reagent (DTNB) as a colouring reagent. The absorbance was read at 412 nm using a UV-VIS Systronics Spectrophotometer.

spleen = settings: day 10 post-irradiation
Method: The weight of the spleen at each autopsy interval (day 1, 3, 7, 10, 14 and 30 post-irradiation) was determined to study changes.

bone marrow cells = system: bone marrow cells
Method: Cytogenetic damage in the bone marrow cells was studied by chromosomal aberration analysis at the end of the experiments. All animals were injected intra-peritoneally (i.p.) with 0.025% colchicine and sacrificed 2 hours later by cervical dislocation. Both femurs were dissected out. Metaphase plates were prepared by the air drying method. Bone marrow from the femur was aspirated, washed in saline, treated hypotonically (0.6% sodium citrate), fixed in 3:1 methanol:acetic acid, dried and stained with 4% Giemsa (Sigma, USA). Chromosomal aberrations were scored under a light microscope. A total of 400 metaphase plates were scored per animal. Different types of aberration-like chromatid breaks, chromosome breaks, fragments, rings, exchanges and dicentrics were scored. When breaks involved both chromatids, it was termed a “chromosome type” aberration, while “chromatid type” aberrations involved only one chromatid. If the deleted portion had no apparent relation to a specific chromosome, it was called a fragment.

[3] = system: mice exposed to 10 Gy gamma radiation; settings: for day of first death post-irradiation: 1 h before 10 Gy; for increase in survival compared with the CMC and irradiation group / reduction in animal survival compared with the 100 mg/kg group: thirty-day survival
Method: Animals of this group received 0.5% carboxymethyl cellulose (CMC) orally before exposure to 10 Gy gamma irradiation.
A batch of ten animals was irradiated each time at a dose rate of 1.33 Gy/min.
After irradiation, the animals were monitored daily for 30 days for the development of symptoms of radiation sickness and mortality.
Animals of this group received 0.5% carboxymethyl cellulose (CMC) orally before exposure to 10 Gy of gamma irradiation.
Animals of this group were treated with 1, 5, 10, 25, 50, 100, 150, 200 or 250 mg/kg body weight of DAPR orally once before exposure to 10 Gy of gamma radiation.
One hour after the administration of CMC or DAPR, the immobilized animals, achieved by inserting cotton plugs in the restrainer, were whole-body exposed to ^60Co gamma radiation (Theratron, Atomic Energy Agency, Canada) in a specially designed well-ventilated acrylic box. A batch of ten animals was irradiated each time at a dose rate of 1.33 Gy/min.
Initially 1, 5 and 10 mg/kg DAPR were also evaluated. […] The radioprotective efficacy of DAPR was evaluated by treating mice with 0, 25, 50, 100, 150, 200 and 250 mg/kg body weight DAPR before whole-body exposure to 10 Gy gamma radiation.

For Cc1c(-c2cnccn2)ssc1=S, the radiation sickness ([1]; 100 mg/kg body weight/day before 6 Gy) was “No radiation sickness was observed”, the “30-Day Survival Percentage” value ([1]; 100 mg/kg body weight/day orally, 2 days, before 6 Gy) was 100% and the “30-Day Survival Percentage” value ([1]; 100 mg/kg body weight/day orally, 2 days, before 8 Gy) was 61%. The “30-Day Survival Percentage” value ([1]; 100 mg/kg body weight/day orally, 2 days, before 10 Gy) was 20%, the “LD50/30 of experimental animals” value ([1]; 100 mg/kg body weight/day orally, 2 days, before radiation, regression analysis of survival data) was 8.82 Gy and 8.51 Gy and the “DRF (dose reduction factor)” value ([1]; LD50/30 of experimental animals divided by LD50/30 of control animals) was 1.34. The “optimum dose exhibiting maximum radioprotection” value ([1]; for 2 consecutive days before irradiation (8 Gy)) was 100 mg/kg body weight/day, the “Blood GSH” value ([2]; drug + 6 Gy) was 3.02 ± 0.12^c μg/ml and the “Liver GSH” value ([2]; drug + 6 Gy) was 52.44 ± 1.54^b μmole/gm. The “Blood GSH” value ([2]; drug + 8 Gy) was 2.88 ± 0.11^b μg/ml, the “Liver GSH” value ([2]; drug + 8 Gy) was 54.62 ± 1.72^c μmole/gm and the “Blood GSH” value ([2]; drug + 10 Gy) was 2.40 ± 0.12 µg/mL. The “Liver GSH” value ([2]; drug + 10 Gy) was 44.38 ± 1.42^c μmole/gm, the “Blood GSH” value ([2]; drug alone, no irradiation) was 4.18 ± 0.18 µg/mL and the “Liver GSH” value ([2]; drug alone, no irradiation) was 65.68 ± 1.48 μmole/gm. For the same molecule, the “Spleen Weight” value (spleen; drug + 6 Gy) was 42.44 ± 1.24^b mg, the “Spleen Weight” value (spleen; drug + 8 Gy) was 32.62 ± 1.02^b mg and the “Spleen Weight” value (spleen; drug + 10 Gy) was 34.38 ± 1.20^c mg. The Chromatid breaks (bone marrow cells; drug (100 mg/kg body weight/day) + 8 Gy) was 3.18 ± 0.44^a %, the Aberrant cells (bone marrow cells; drug + 8 Gy) was 17.20 ± 1.20^c % and the “Aberrations per damaged cell” value (bone marrow cells; drug + 8 Gy) was 2.21 ± 0.20^a. For the same molecule, the Centric rings (bone marrow cells; drug + 8 Gy) was 1.26 ± 0.28%, the Chromosome breaks (bone marrow cells; drug + 8 Gy) was 1.04 ± 0.26^b % and the Dicentrics (bone marrow cells; drug + 8 Gy) was 1.10 ± 0.14%. The Exchanges (bone marrow cells; drug + 8 Gy) was 1.18 ± 0.32^b %, the Fragments (bone marrow cells; drug + 8 Gy) was 28.8 ± 3.20^c % and the Polyploidy (bone marrow cells; drug + 8 Gy) was 0.36 ± 0.01^c %. For the same molecule, the Pulverized cells (bone marrow cells; drug + 8 Gy) was 1.28 ± 0.02^c %, the Total aberrations (bone marrow cells; drug + 8 Gy) was 38.10 ± 3.66^c % and the Aberrant cells (bone marrow cells; drug alone) was 0.61 ± 0.04%. The “Aberrations per damaged cell” value (bone marrow cells; drug alone) was 1.21 ± 0.03^c, the Centric rings (bone marrow cells; drug alone) was 0.00 ± 0.00% and the Chromatid breaks (bone marrow cells; drug alone) was 0.14 ± 0.01%. It also gave a Chromosome breaks (bone marrow cells; drug alone) of 0.00 ± 0.00%, a Dicentrics (bone marrow cells; drug alone) of 0.00 ± 0.00% and an Exchanges (bone marrow cells; drug alone) of 0.00 ± 0.00%. For the same molecule, the Fragments (bone marrow cells; drug alone) was 0.85 ± 0.04^b %, the Polyploidy (bone marrow cells; drug alone) was 0.18 ± 0.02% and the Pulverized cells (bone marrow cells; drug alone) was 0.00 ± 0.00%. For the same molecule, the Total aberrations (bone marrow cells; drug alone) was 0.74 ± 0.02%, the “day of first death post-irradiation” value ([3]; 5 mg/kg orally once) was 7 days and the “increase in survival compared with the CMC and irradiation group” value ([3]; 10 mg/kg, 10 Gy) was 20%. The “increase in survival compared with the CMC and irradiation group” value ([3]; 25 mg/kg, 10 Gy) was 30%, the “increase in survival compared with the CMC and irradiation group” value ([3]; 50 mg/kg, 10 Gy) was 40% and the thirty-day survival ([3]; 100 mg/kg orally before 10 Gy) was 60%. The “day of first death post-irradiation” value ([3]; 100 mg/kg orally once) was 11 days, the “increase in survival compared with the non-treated irradiated control” value ([3]; 100 mg/kg, 10 Gy) was 60% and the “reduction in animal survival compared with the 100 mg/kg group” value (shortened to “reduction in animal survival”) ([3]; 150 mg, 10 Gy) was 20%. For the same molecule, the “mortality within 10 days of irradiation” value ([3]; 150 mg/kg orally before 10 Gy) was “did not cause any mortality”, the “reduction in animal survival” value ([3]; 200 mg, 10 Gy) was 20% and the “mortality within 10 days of irradiation” value ([3]; 200 mg/kg orally before 10 Gy) was “did not cause any mortality”. The “reduction in animal survival” value ([3]; 250 mg/kg, 10 Gy) was 30% and the optimum protective dose ([3]; oral, before 10 Gy) was 100 mg/kg.

Source: patent US20180311237A1, “COMPOSITIONS AND METHODS FOR PREVENTING AND TREATING MUCOSITIS AND WEIGHT LOSS” (ST IP Holding AG, priority 2007, published 2018)
